This passage reports EC50 and IC50 results from patent US11964973B2 (priority 2019, dated 2024).

pEC50, pIC50: −log10 of the molar value. Where two headings read alike, the source gives them in different places.

Experiment [1] has as its system Human venous whole blood (IFN-γ). Briefly: Human whole blood IFN-γ assay. In kind it is cell-based. The protocol:
Assay 10: Human Whole Blood IFN-γ Assay
Human venous whole blood (22.5 μL per well), obtained from healthy donors, was pre-treated with compounds for one hour at 37° C. in a humidified 95% air/5% CO2 incubator. The blood was stimulated with 2.5 μL anti-human CD3 and anti-CD28 mAb at a final concentration of 1 μg/mL each for 24 hours at 37° C. IFN-γ in the supernatants was measured using AlphLISA kit (Cat #AL217).

The subject of experiment [2] is human venous whole blood, CD8 positive population (pERK). The experiment in a line: DGK human whole blood pERK assay. In kind it is cell-based. The note with it: for pIC50: read-out: DGK HWB pERK IC50. An outline of the steps: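 Read-out is the pERK-positive fraction of CD8+ cells measured by flow cytometry. Donor venous blood (heparin) saw compound for one hour at 37° C before a 15-minute anti-CD3 challenge (1 μg/mL final) with cross-linking anti-mouse IgG.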

Another experiment concerns the target DGKα (Homo sapiens (Human), UniProt P23743). Briefly: biochemical. The settings on record: read-out: DGKα LIPGLO IC50. In kind it is biochemical.
The target of a further experiment is human DGKζ (Homo sapiens (Human), UniProt Q13574). The experiment in a line: biochemical. It is filed as biochemical. The settings on record: Table A; liposome (LIPGLO) assay; read-out: DGKζ.
[3] abbreviates: Homo sapiens, 24 h, human whole blood, anti-CD3 plus anti-CD28, 24 hours, read-out: INFg Whole Blood Normalized Agonist EC50.
The mark [4] stands for this setting: human whole blood, CD8 positive population.
Where [5] appears, read: Homo sapiens, human whole blood IFN-γ, read-out: INFg Whole Blood.
The mark [6] stands for this setting: Homo sapiens, CD8 positive, human whole blood pERK, read-out: DGK HWB.
[7] abbreviates: human whole blood, anti-CD3 plus anti-CD28, 24 hours, read-out: INFg Whole Blood Normalized Agonist EC50.
The mark [8] stands for this setting: human whole blood IFN-γ, read-out: INFg Whole Blood.
Setting [9] is: human whole blood pERK, read-out: DGK HWB.

DGKα, sequence (P23743 whole entry, looked up): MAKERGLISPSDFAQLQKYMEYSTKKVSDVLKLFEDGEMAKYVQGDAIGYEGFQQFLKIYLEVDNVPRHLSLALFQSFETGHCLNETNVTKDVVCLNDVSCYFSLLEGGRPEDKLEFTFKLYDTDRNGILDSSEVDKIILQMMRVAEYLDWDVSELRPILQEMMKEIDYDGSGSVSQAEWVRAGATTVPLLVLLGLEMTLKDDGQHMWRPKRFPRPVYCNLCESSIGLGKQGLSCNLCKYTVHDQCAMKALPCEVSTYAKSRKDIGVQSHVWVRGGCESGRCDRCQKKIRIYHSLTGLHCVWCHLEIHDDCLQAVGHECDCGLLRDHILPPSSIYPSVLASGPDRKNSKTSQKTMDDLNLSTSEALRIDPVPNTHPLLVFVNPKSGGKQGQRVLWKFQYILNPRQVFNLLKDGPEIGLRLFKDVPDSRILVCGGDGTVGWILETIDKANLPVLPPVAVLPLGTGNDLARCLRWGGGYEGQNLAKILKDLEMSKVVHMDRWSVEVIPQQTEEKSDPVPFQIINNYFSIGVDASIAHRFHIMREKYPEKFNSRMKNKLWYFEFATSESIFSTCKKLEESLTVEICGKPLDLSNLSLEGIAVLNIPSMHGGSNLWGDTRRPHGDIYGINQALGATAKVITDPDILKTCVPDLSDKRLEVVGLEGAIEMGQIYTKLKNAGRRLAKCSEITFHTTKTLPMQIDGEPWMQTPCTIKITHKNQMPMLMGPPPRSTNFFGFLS
human DGKζ, sequence (Q13574 whole entry, looked up): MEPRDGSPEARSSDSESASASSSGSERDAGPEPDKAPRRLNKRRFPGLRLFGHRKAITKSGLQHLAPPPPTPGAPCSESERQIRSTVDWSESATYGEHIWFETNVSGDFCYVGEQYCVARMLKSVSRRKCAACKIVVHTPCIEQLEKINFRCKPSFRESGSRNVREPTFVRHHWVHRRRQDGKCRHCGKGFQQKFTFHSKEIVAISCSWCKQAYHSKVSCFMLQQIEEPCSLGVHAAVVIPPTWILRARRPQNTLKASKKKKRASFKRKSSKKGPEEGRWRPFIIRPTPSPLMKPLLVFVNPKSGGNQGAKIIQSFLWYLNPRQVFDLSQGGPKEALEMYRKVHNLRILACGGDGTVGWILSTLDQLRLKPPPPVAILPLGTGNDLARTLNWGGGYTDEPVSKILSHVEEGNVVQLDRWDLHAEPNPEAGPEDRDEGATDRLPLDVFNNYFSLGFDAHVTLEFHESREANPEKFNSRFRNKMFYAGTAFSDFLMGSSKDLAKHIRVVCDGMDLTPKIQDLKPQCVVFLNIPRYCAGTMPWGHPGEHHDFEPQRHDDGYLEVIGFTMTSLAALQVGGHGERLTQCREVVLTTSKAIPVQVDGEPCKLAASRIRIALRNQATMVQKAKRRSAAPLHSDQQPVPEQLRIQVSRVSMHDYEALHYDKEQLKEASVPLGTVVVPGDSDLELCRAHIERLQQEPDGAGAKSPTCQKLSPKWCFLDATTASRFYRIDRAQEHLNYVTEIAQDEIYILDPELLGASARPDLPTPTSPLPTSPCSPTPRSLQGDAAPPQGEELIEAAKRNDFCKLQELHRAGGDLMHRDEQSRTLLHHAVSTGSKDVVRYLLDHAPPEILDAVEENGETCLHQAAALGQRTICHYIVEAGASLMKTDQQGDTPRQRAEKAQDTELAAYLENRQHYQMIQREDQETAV

On to `C[C@@H]1CN(c2cc(=O)n(C)c3ccc(C#N)nc23)CC[C@H]1Oc1ccc(C(F)(F)F)cc1` (racemic) [Example 97, 5-methyl-8-((3R,4R)-3-methyl-4-(4-(trifluoromethyl)phenoxy)piperidin-1-yl)-6-oxo-5,6-dihydro-1,5-naphthyridine-2-carbonitrile], for which, in experiment [1] (setting [3]), the pEC50 is 5.72. For the same compound, in experiment [2] (setting [4]), the pIC50 was 5.52.

Consider `C[C@@H]1CN(c2cc(=O)n(C)c3ccc(C#N)nc23)CC[C@H]1Oc1ccc(F)c(F)c1` (racemic) [Example 103, 8-((3R,4R)-4-(3,4-difluorophenoxy)-3-methylpiperidin-1-yl)-5-methyl-6-oxo-5,6-dihydro-1,5-naphthyridine-2-carbonitrile], for which the pEC50 in experiment [1] (setting [3]) was 5.82. Besides, in experiment [2] (setting [4]), the pIC50 is 5.26.

On to `C[C@@H]1CN(c2cc(=O)n(C)c3ccc(C#N)nc23)CC[C@@H]1Oc1ccc(C(C)(C)C)cc1` (racemic) [Example 175, 8-((3R,4S)-4-(4-(tert-butyl)phenoxy)-3-methylpiperidin-1-yl)-5-methyl-6-oxo-5,6-dihydro-1,5-naphthyridine-2-carbonitrile], for which the pEC50 in experiment [1] (setting [3]) was 5.85. Besides, the pIC50 in experiment [2] (setting [4]) is 6.10.

`CC(C)Oc1ccc(O[C@H]2CCN(c3cc(=O)n(C)c4ccc(C#N)nc34)C[C@H]2C)nc1` (racemic) [Example 228, (+/−) 8-(cis-4-((5-isopropoxypyridin-2-yl)oxy)-3-methylpiperidin-1-yl)-5-methyl-6-oxo-5,6-dihydro-1,5-naphthyridine-2-carbonitrile]: the pEC50 in experiment [1] (setting [5]) was 5.96; in experiment [2] (setting [6]), 5.82.

In the case of `C[C@@H]1CN(c2cc(=O)n(C)c3ccc(C#N)nc23)CC[C@H]1Oc1ccc(F)c(F)c1` (single isomer, unassigned) [Example 104], in experiment [1] (setting [3]), the pEC50 was 5.74. Moreover, in experiment [2] (setting [4]), the pIC50 was 5.96.

In the case of `CC[C@@H]1CN(c2cc(=O)n(C)c3ccc(C#N)nc23)CC[C@H]1Oc1ccc(C(C)C)cc1` (single isomer, unassigned) [Example 144], in experiment [1] (setting [7]), the pEC50 was 6.10. The pIC50 in experiment [2] (setting [4]) is 6.06.

`CC[C@@H]1CN(c2cc(=O)n(C)c3ccc(C#N)nc23)CC[C@H]1Oc1ccc(C(F)(F)F)cc1` (single isomer, unassigned) [Example 147]: the pEC50 in experiment [1] (setting [7]) is 5.92. Also, the pIC50 in experiment [2] (setting [4]) was 6.21.

`C[C@@H]1CN(c2cc(=O)n(C)c3ccc(C#N)nc23)CC[C@@H]1Oc1ccc(OC(C)(C)C)cc1` (single isomer, unassigned) [Example 173]: the pIC50 at DGKα (liposome (LIPGLO) assay) was 6.13. For the same compound, in experiment [1] (setting [7]), the pEC50 is 5.96.

For the compound `C[C@@H]1CN(c2cc(=O)n(C)c3ccc(C#N)nc23)CC[C@@H]1Oc1ccc(OC(C)(C)C)cc1` (single isomer, unassigned) [Example 174], the pIC50 on DGKα was 5.80. In experiment [1] (setting [7]), the pEC50 was 5.44.

In the case of `C[C@@H]1CN(c2cc(=O)n(C)c3ccc(C#N)nc23)CC[C@@H]1Oc1ccc(C(F)(F)F)cc1` (single isomer, unassigned) [Example 187, 5-methyl-8-(cis-3-methyl-4-(4-(trifluoromethyl)phenoxy)piperidin-1-yl)-6-oxo-5,6-dihydro-1,5-naphthyridine-2-carbonitrile (rel)], the results for the pEC50 in experiment [1] (setting [8]) and in experiment [2] (setting [6]) were 5.77 and 5.74, respectively.

As to `CC[C@@H]1CN(c2cc(=O)n(C)c3ccc(C#N)nc23)CC[C@H]1Oc1ccc(OC(C)C)cn1` (single isomer, unassigned) [Example 193], the pIC50 on human DGKζ was 5.66. Also, the pEC50 in experiment [1] (setting [8]) is 6.43; in experiment [2] (setting [9]), 6.40.

`CC[C@@H]1CN(c2cc(=O)n(C)c3ccc(C#N)nc23)CC[C@H]1Oc1ccc(OC(C)C)cn1` (single isomer, unassigned) [Example 194]: the pIC50 on human DGKζ is 5.74. Also, the pEC50 in experiment [1] (setting [8]) was 5.74; in experiment [2] (setting [9]), 5.52.

With `CC(C)Oc1ccc(O[C@@H]2CCN(c3cc(=O)n(C)c4ccc(C#N)nc34)C[C@H]2C)nc1` (single isomer, unassigned) [Example 200], the pEC50 in experiment [1] (setting [5]) is 5.82; in experiment [2] (setting [6]), 5.48.

As for `CC(C)Oc1ccc(O[C@@H]2CCN(c3cc(=O)n(C)c4ccc(C#N)nc34)C[C@H]2C)nc1` (single isomer, unassigned) [Example 201], the pEC50 in experiment [1] (setting [8]) was 6.04; in experiment [2] (setting [9]) it was 5.41.

Turning to `CC(C)c1ccc(O[C@H]2CCN(c3cc(=O)n(C)c4ccc(C#N)nc34)C[C@H]2C)nc1` (single isomer, unassigned) [Example 206], the pEC50 in experiment [1] (setting [8]) was 6.39; in experiment [2] (setting [9]), 5.44.

On to `CC(C)c1ccc(O[C@H]2CCN(c3cc(=O)n(C)c4ccc(C#N)nc34)C[C@H]2C)nc1` (single isomer, unassigned) [Example 207], for which the pEC50 in experiment [1] (setting [8]) was 5.89; in experiment [2] (setting [9]), 4.92.

For `C[C@@H]1CN(c2cc(=O)n(C)c3ccc(C#N)nc23)CC[C@@H]1Oc1ccc(C(F)F)cn1` (single isomer, unassigned) [Example 209], the pEC50 in experiment [1] (setting [5]) is 5.74; in experiment [2] (setting [6]) it was 4.74.

For `C[C@@H]1CN(c2cc(=O)n(C)c3ccc(C#N)nc23)CC[C@@H]1Oc1ccc(C(F)F)cn1` (single isomer, unassigned) [Example 210], the pEC50 in experiment [1] (setting [8]) is 5.92; in experiment [2] (setting [9]), 4.89.

With `CC(C)c1cccc(O[C@H]2CCN(c3cc(=O)n(C)c4ccc(C#N)nc34)C[C@H]2C)n1` (single isomer, unassigned) [Example 216], the results for the pEC50 in experiment [1] (setting [8]) and in experiment [2] (setting [6]) were 5.85 and 4.85, respectively.

With `Cn1c(=O)cc(N2CCC(Oc3ccc(C(C)(C)C)cc3)CC2)c2cc(C#N)ccc21` [Example 53, 4-(4-(4-(tert-butyl)phenoxy)piperidin-1-yl)-1-methyl-2-oxo-1,2-dihydroquinoline-6-carbonitrile], the pEC50 in experiment [1] (setting [3]) is 5.74. Also, the pIC50 in experiment [2] (setting [4]) was 5.55.

With `C[C@@H]1CN(c2cc(=O)n(C)c3ccc(C#N)nc23)CC[C@H]1Oc1ccc(OC(C)(C)C)cc1` [Example 86, 8-((3R,4R)-4-(4-(tert-butoxy)phenoxy)-3-methylpiperidin-1-yl)-5-methyl-6-oxo-5,6-dihydro-1,5-naphthyridine-2-carbonitrile], the pIC50 at DGKα was 6.14. In experiment [1] (setting [7]), the pEC50 is 6.16.

With `C[C@@H]1CN(c2cc(=O)n(C)c3ccc(C#N)nc23)CC[C@H]1Oc1ccc(OC(C)(C)C)cc1` [Example 87, 8-((3R,4R)-4-(4-(tert-butoxy)phenoxy)-3-methylpiperidin-1-yl)-5-methyl-6-oxo-5,6-dihydro-1,5-naphthyridine-2-carbonitrile], the pIC50 at DGKα (liposome (LIPGLO) assay) is 7.30. The pEC50 in experiment [1] (setting [7]) is 5.70.

For `CC[C@@H]1CN(c2cc(=O)n(C)c3ccc(C#N)nc23)CC[C@H]1Oc1cccc(C(F)(F)F)c1` [Example 140, 8-((3R,4R)-3-ethyl-4-(3-(trifluoromethyl)phenoxy)piperidin-1-yl)-5-methyl-6-oxo-5,6-dihydro-1,5-naphthyridine-2-carbonitrile], the pIC50 at DGKα (liposome (LIPGLO) assay) was 6.89. Besides, the pEC50 in experiment [1] (setting [3]) was 5.92.

With `CC[C@@H]1CN(c2cc(=O)n(C)c3ccc(C#N)nc23)CC[C@@H]1Oc1cccc(C(C)C)c1` [Example 164, 8-((3R,4S)-3-ethyl-4-(3-isopropylphenoxy)piperidin-1-yl)-5-methyl-6-oxo-5,6-dihydro-1,5-naphthyridine-2-carbonitrile], the pEC50 in experiment [1] (Homo sapiens, 24 h, read-out: INFg Whole Blood Normalized Agonist EC50, human whole blood, anti-CD3 plus anti-CD28, 24 hours) was 6.10. Moreover, in experiment [2] (Homo sapiens, CD8 positive), the pIC50 is 5.29.

For `CCO[C@@H]1CN(c2cc(=O)n(C)c3ccc(C#N)nc23)CC[C@H]1Oc1cccc(C(F)(F)F)c1` [Example 263, 8-((3R,4R)-3-ethoxy-4-(3-(trifluoromethyl)phenoxy)piperidin-1-yl)-5-methyl-6-oxo-5,6-dihydro-1,5-naphthyridine-2-carbonitrile], the pEC50 in experiment [1] (setting [8]) was 6.74; in experiment [2] (setting [6]), 6.70.

In the case of `Cn1c(=O)cc(N2CC[C@@H](Oc3cccc(C(F)(F)F)c3)[C@H](OCC3CC3)C2)c2nc(C#N)ccc21` [Example 388, 8-((3R,4R)-3-(cyclopropylmethoxy)-4-(3-(trifluoromethyl)phenoxy)piperidin-1-yl)-5-methyl-6-oxo-5,6-dihydro-1,5-naphthyridine-2-carbonitrile], the pEC50 in experiment [2] (human whole blood, CD8 positive population, anti-CD3 stimulation, top concentration 20 μM, read-out: DGK HWB (human whole blood pERK)) is 4.70.

For the compound `Cn1c(=O)cc(N2CC[C@@H](Oc3cccc(C(F)(F)F)c3)[C@H](OCCN3CCOCC3)C2)c2nc(C#N)ccc21` [Example 391, 5-methyl-8-((3R,4R)-3-(2-morpholinoethoxy)-4-(3-(trifluoromethyl)phenoxy)piperidin-1-yl)-6-oxo-5,6-dihydro-1,5-naphthyridine-2-carbonitrile], the pEC50 in experiment [2] (Homo sapiens, CD8 positive, read-out: DGK HWB (human whole blood pERK), human whole blood, CD8 positive population, anti-CD3 stimulation, top concentration 20 μM) is 4.77.
